The values that follow come from patent US9079821B2, “Quinone based nitric oxide donating compounds” (NICOX S.A., priority 2011, dated 2015).

Structures are written as SMILES. Where two headings read alike, the source gives them in different places.

The subject of data set [1] is lipid peroxidation of hepatic microsomal membranes. The experiment in a line: In vitro antioxidant activity (TBARS test), Method B (2.5 μM FeSO4). It is filed as biochemical, rat. The settings on record: inhibition of TBARS production, read-out: Antioxidant activity IC50 μM (CL 95%). As for the experimental part: The antioxidant properties of compounds (6) (disclosed in example 1) and compound (23) (disclosed in example 19) and reference antioxidant compounds were assessed after NADPH-induced lipidic peroxidation of membrane lipids in rat hepatocytes using the detection of 2-thiobarbituric acid reactive substances (TBARS) by visible spectroscopy. Hepatic microsomal membranes from male Wistar rats (200-250 g) were prepared by differential centrifugation (8000 g, 20 min; 120000 g, 1 h) in a HEPES/sucrose buffer (10 mM, 250 mM, pH 7.4) and stored at −80° C. Incubation was performed at 37° C. in a Tris-HCl/KCl (100 mM/150 mM, pH 7.4) containing microsomal membranes (2 mg prot/mL), sodium ascorbate (100 μM), and DMSO solutions of the tested compounds. Lipid peroxidation was initiated by adding ADP-FeCl3 and NADPH (Method A) or 2.5 μM FeSO4 (Method B) (as described by Boschi D. et al., J. Med. Chem. 2006, 49:2886-2897). Aliquots were taken from the incubation mixture at 5, 15, and 30 min and treated with trichloroacetic acid (TCA) 10% w/v. Lipid peroxidation was assessed by spectrophotometric (543 nm) determination of the TBARS consisting mainly of malondialdehyde (MDA). TBARS concentrations (expressed in nmol/mg protein) were obtained by interpolation with a MDA standard curve. […] IC50 values were calculated by nonlinear regression analysis.

For data set [2], the system named is rat L-NAME-induced hypertension. Kind of data set: In vivo tolerance evaluation (L-NAME-induced hypertension after 5-day oral treatment). The settings on record: for Delta vs basal (mmHg): peak effect 1 hour. Here is the method:
(§1) Fasted male SD rats (250-300 g, n=3-5 per group), obtained from Harlan Italy (Correzzana, Milan, Italy) were orally treated with tested compounds or vehicle (DMSO:Methocel 1% 2/98 v/v) in a total volume of 4 ml/kg by gavage. At each time point (1, 3, 6 and 24 h) animals were deeply anesthetized with Zoletil® 100 (3 mg/kg), given intramuscularly. Thereafter, a pressure catheter (Samba Sensors, Harvard Apparatus, UK) was introduced into the common carotid artery for central blood pressure measurement. Pressure transducer was connected to a personal computer, in order to allow real time monitor of the pressure tracing. After 10 minutes of basal recording, L-NAME (50 mg/kg) was administered intraperitoneally and the effect on SBP monitored. When the SBP stabilized (5 minutes without variations) the recording was stopped. To further confirm that functional activity was NO-dependent, at each time point blood ^15N-nitrite levels were measured following the procedure described in Example 12.
To investigate whether the compound (6) induced nitrate tolerance, as observed for most of the drugs belonging to the nitrate class, the L-NAME-induced hypertension rat model described in Example 7 was performed following a repeated oral treatment. Rats were orally treated for 5 days with vehicle, compound (6) (100 mg/kg) or 5-ISMN (30 mg/kg). […] The experiments were performed at the peak effect (1 hour for 5-ISMN and 3 hours for Compound (6)), results are reported in Table 3.

The subject of data set [3] is isolated aortas from rats. The experiment in a line: Ex vivo tolerance evaluation (vascular response of isolated aortas from treated rats). It is filed as in vivo, rat. To be noted: for EC50: vascular response to 5-ISMN, 1 h after last administration. As for the experimental part:
(§2) Thoracic aortas from male New Zealand rabbits or male Sprague Dawley (SD) were used. The aortas were placed immediately in Krebs-HEPES buffer (pH 7.4; composition mM: NaCl 130.0, KCl 3.7, NaHCO3 14.9, KH2PO4 1.2, MgSO4.7H2O 1.2, Glucose 11.0, HEPES 10.0, CaCl2.2H2O 1.6). Connective tissue was removed and aortas were cut into ring segments (4-5 mm in length). Each ring was placed in a 5 mL tissue bath filled with Krebs-HEPES buffer (37° C.) aerated with 95% O2 and 5% CO2 and was attached to a force transducer (Grass FT03), connected to a BIOPAC MP150 System for measurement of the isometric tension. Preparations were allowed to equilibrate for 1 h at a resting tension of 2 g for rabbit aortas and 1 g for rat aortas with changes of the buffer every 15 min. Then the rings were stimulated by exposure to 90 mM KCl (3 times) with intervening washings.
(§3) Rat aorta. After equilibration, rat aortas were precontracted with KCl (90 mM) and, when the contraction was stable, a cumulative concentration-response curve to acetylcholine (ACh, 0.01-100 μM) was added. After washout, the rings were precontracted again with KCl (90 mM). When a steady-state level of contraction was obtained, a cumulative concentration-response curve to the tested compounds (0.01-100 μM) was obtained.
(§4) Data analysis. Results are given as mean±SEM. Vascular responses are expressed as percentage relaxation and plotted vs concentration. The sensitivity of isolated aorta to different vasodilators is expressed as the concentration that elicited 50% of the maximal responses (EC50). Responses are quantified in terms of EC50 and Emax (maximal vasodilating effect) values, obtained from the concentration-response curve by nonlinear curve fitting, using GraphPad software.
Tolerance to nitrate was further investigated assessing the vascular effects of Compound (6) following repeated treatment compared with 5-ISMN. The vascular response to the compound itself was assessed on isolated aortas from rats orally treated for 5 days with Compound (6) (100 mg/kg). The vascular response was performed as described in Example 6.
Vascular responses were performed 1 h (ISMN) or 3 h (Compound (6)) after the last administration, the concentrations of tested compound that elicited the 50% of the maximal responses (EC50) are shown in Table 4.

Data set [4] relates to rat aorta, endothelial-dependent vasodilation (response to ACh). Kind of data set: Endothelial dysfunction evaluation (vascular response to acetylcholine after treatment). The data set is classed as in vivo. To be noted: for % relaxation (Emax): response to ACh. Here is the method:
as §2, §3, §4
Endothelial-dependent vasodilation (vascular response to acetylcholine, ACh) was assessed following 5-day treatment with Compound (6) (100 mg/kg) or 5-ISMN (30 mg/kg). A relaxant response to ACh indicated the presence of a functional endothelium. The vascular response was performed as described in Example 6.

Data set [5] deals with rat L-NAME-induced hypertension. The experiment in a line: Rat L-NAME-induced hypertension, systolic blood pressure after single oral dose. The data set is classed as in vivo. To be noted: for Delta vs basal (mmHg): 5-ISMN 30 mg/kg oral, L-NAME 50 mg/kg i.p. Here is the method: To assess the in vivo NO-dependent activity, Compound (6) was evaluated for systolic blood pressure (SBP) reduction efficacy in a rat model of NO-deprivation induced by L-NAME and compared with 5-ISMN.
as §1

Data set [6] can be described thus: Blood 15N-nitrite levels in the rat L-NAME-induced hypertension study. The data set is classed as in vivo. The settings on record: 5-ISMN 30 mg/kg oral. As for the experimental part:
as §1
Cannulated SD rats were orally treated with ^15N-Compounds (6) at 30 mg/kg, 5-ISM^15N (30 mg/kg), or ^15N-Compounds (1)-(5), 14)-(17), (19), (20), (23), (25), (28), (29), (32), (34) at 30 mg/kg. At each time point (5, 10, 15, 30, 60, 180, 360 and 1440 min) blood was taken using heparin to avoid blood clotting. Blood samples were immediately protein crushed. Samples were analyzed by LC-MS/MS.

Data set [7] has as its system NADPH-induced lipidic peroxidation of membrane lipids (hepatic microsomal membranes). The experiment in a line: In vitro antioxidant activity (TBARS test), Method A (ADP-FeCl3 and NADPH). It is filed as biochemical, rat. To be noted: inhibition of TBARS production after 30 min incubation, read-out: Antioxidant activity IC50 μM (CL 95%). Here is the method:
The antioxidant properties of compounds (6) (disclosed in example 1) and compound (23) (disclosed in example 19) and reference antioxidant compounds were assessed after NADPH-induced lipidic peroxidation of membrane lipids in rat hepatocytes using the detection of 2-thiobarbituric acid reactive substances (TBARS) by visible spectroscopy.
Hepatic microsomal membranes from male Wistar rats (200-250 g) were prepared by differential centrifugation (8000 g, 20 min; 120000 g, 1 h) in a HEPES/sucrose buffer (10 mM, 250 mM, pH 7.4) and stored at −80° C. Incubation was performed at 37° C. in a Tris-HCl/KCl (100 mM/150 mM, pH 7.4) containing microsomal membranes (2 mg prot/mL), sodium ascorbate (100 μM), and DMSO solutions of the tested compounds. Lipid peroxidation was initiated by adding ADP-FeCl3 and NADPH (Method A) or 2.5 μM FeSO4 (Method B) (as described by Boschi D. et al., J. Med. Chem. 2006, 49:2886-2897). Aliquots were taken from the incubation mixture at 5, 15, and 30 min and treated with trichloroacetic acid (TCA) 10% w/v. Lipid peroxidation was assessed by spectrophotometric (543 nm) determination of the TBARS consisting mainly of malondialdehyde (MDA). TBARS concentrations (expressed in nmol/mg protein) were obtained by interpolation with a MDA standard curve. The antioxidant activity of tested compounds was evaluated as the percent inhibition of TBARS production with respect to control samples, using the values obtained after 30 min of incubation. IC50 values were calculated by nonlinear regression analysis.

Data set [8] relates to lipid peroxidation of hepatic microsomal membranes. To be noted: Method B; values from Chegaev, K. et al. (footnotes a, b); read-out: Antioxidant activity IC50 μM (CL 95%); cited from earlier work.

On to `O=C(O)/C=C/c1ccc(O)c(O)c1` [Caffeic acid], for which the IC50 in data set [1] came to 33 µM.
Regarding `O=[N+]([O-])O[C@@H]1CO[C@H]2[C@@H]1OC[C@@H]2O` [Compound 5-ISMN, isosorbide-5-mononitrate, reference compound], the “efficacy against L-NAME-induced hypertension after 5-day treatment (nitrate tolerance), in words” value in data set [2] (5-ISMN 30 mg/kg oral, 5 days) was “did not maintain its efficacy in preventing L-NAME-induced hypertension”. For the same compound, the “Delta vs basal (mmHg)” value in data set [2] (acute treatment, 5-ISMN 30 mg/kg oral) amounted to 10.5 ± 6.1 mmHg; in data set [2] (repeated (5 days) oral treatment, 5-ISMN 30 mg/kg), 88 ± 11.5 mmHg; in data set [5] (1 hour), 10.5 ± 6.1 mmHg; in data set [5] (3 hours), 6.5 ± 2.4 mmHg; in data set [5] (6 hours), 51.2 ± 5.7 mmHg; in data set [5] (24 hours), 83 ± 9 mmHg. In addition, the “vascular response of aortas from treated animals vs control arteries, in words” value in data set [3] (5-ISMN 30 mg/kg, repeated treatment) is “showed a reduced vascular response to 5-ISMN compared to control arteries”. Also, the EC50 in data set [3] (acute, aortas of rats given 5-ISMN 30 mg/kg) stood at 20 ± 0.6 µM; in data set [3] (repeated (5 days oral) 5-ISMN 30 mg/kg), 127 ± 48 µM. Further, the “effect on endothelial-dependent vasorelaxation, in words” value in data set [4] (5-ISMN 30 mg/kg, 5-day treatment) is recorded as “caused a reduced response to Ach”. The “% relaxation (Emax)” value amounted to 92.7 ± 4.3% in data set [4] (acute, 5-ISMN 30 mg/kg) and 78.2 ± 9.2% in data set [4] (repeated (5-day) 5-ISMN 30 mg/kg). Also, in data set [5] (5-ISMN 30 mg/kg, single oral administration), the “time over which L-NAME induced hypertension was counteracted after treatment” value was at most 3 h. The “15N-nitrite levels” value in data set [6] (1 hour) stood at 11.0 ± 0.5 µM; in data set [6] (3 hours), 8.7 ± 0.7 µM; in data set [6] (6 hours), 6.5 ± 0.5 µM; in data set [6] (24 hours), 0.34 ± 0.06 µM.
In the case of `CC1=C(CCCCCCO[N+](=O)[O-])C(=O)c2ccccc2C1=O` [Compound (23), 6-(3-methyl-1,4-dioxo-1,4-dihydronaphthalen-2-yl) hexyl nitrate], in data set [7], the concentration for half-maximal inhibition (IC50) amounted to 1.4 µM.
For the compound `CC1=NN(c2ccccc2)C(=O)C1` [Edavarone], the half-inhibitory concentration (IC50) in data set [8] is 17 µM.
In the case of `COC1=C(OC)C(=O)C(CCCCCCCCCCO)=C(C)C1=O` [Idebenone, reference compound], the IC50 in data set [7] is 1.6 µM.
For the compound `COc1ccc2[nH]cc(CCNC(C)=O)c2c1` [Melatonin], in data set [8], the IC50 is 476 µM.
